Assay results reported in patent US8455244B2, “Co-crystallization of ERR-α with a ligand that forms a reversible covalent bond” (Janssen Pharmaceutica N.V., priority 2009, dated 2013).

Columns and labels:
ERR-α [1] = molecular target: ERR-α (Homo sapiens, UniProt P11474); assay: biochemical
Description: For TR-FRET measurements, the reaction was buffered in 25 mM Tris pH 8, 2.5 mM Hepes, 20 mM KCl, 1 mM DTT, and 0.05 mg/mL BSA (-lipids). […] Reactions were allowed to reach equilibrium at 25° C. for 4-18 hours before collecting data on the Analyst from LJL Biosystems (Molecular Devices Sunnyvale, Calif.).
Target sequence in this assay (P11474 with tags, fused parts or gaps limits assumed): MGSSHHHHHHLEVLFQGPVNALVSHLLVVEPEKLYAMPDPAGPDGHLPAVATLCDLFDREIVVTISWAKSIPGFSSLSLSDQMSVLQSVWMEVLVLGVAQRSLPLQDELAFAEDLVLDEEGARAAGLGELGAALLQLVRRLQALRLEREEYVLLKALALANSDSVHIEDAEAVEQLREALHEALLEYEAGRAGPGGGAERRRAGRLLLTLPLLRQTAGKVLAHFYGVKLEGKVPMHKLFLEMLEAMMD

ERR-α [2] = molecular target: T1, ERR-α (Homo sapiens, UniProt P11474); assay: LC/MS dissociation rate with 20-fold excess Compound 2 as competing ligand; assay type: binding; parameters: made in house; host or cells: Spodoptera frugiperda (Sf9) insect cells, baculovirus; details: ligand 1 μM, ERR-α 0.5 μM, competing ligand 20 μM, 37° C., assumed first order
T1 sequence (P11474 with tags, fused parts or gaps): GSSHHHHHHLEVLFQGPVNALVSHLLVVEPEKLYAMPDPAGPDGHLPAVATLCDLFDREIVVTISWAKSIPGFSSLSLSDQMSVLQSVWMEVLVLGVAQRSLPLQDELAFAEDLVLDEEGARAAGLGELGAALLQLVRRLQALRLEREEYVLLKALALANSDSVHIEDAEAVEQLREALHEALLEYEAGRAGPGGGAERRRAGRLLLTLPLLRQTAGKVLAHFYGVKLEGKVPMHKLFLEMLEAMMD
Excerpt: The progress of the reaction was also expressed as a fraction of the area observed for the complex of ERR-α and the competing ligand over the sum of total area for the complex of ERR-α with the ligand and the complex of ERR-α with the competing ligand.
where k is the apparent rate constant.

ERR-α [3] = molecular target: T1, ERR-α; assay: biochemical; details: pH 7.9, read-out: ka
Description: To monitor the kinetics of association and dissociation for ligands that formed a complex with ERR-α by forming a covalent bond to Cys325 of ERR-α, LC/MS detection was employed. LC analysis was performed on an Agilent 1100 LC system that was in line with an Agilent MSD TOF for mass detection. Software provided by the vendor was used to deconvolute the ESI positive ion quadrupole time-of-flight spectra. To measure association rates, typically a 1 μM ERR-α solution was mixed with an equal volume of a 2 μM ligand solution. […]
For the apo form of ERR-α, a mass of 27042 was detected, corresponding to an amino acid sequence where the initiator methionine is cleaved followed by N-terminal acetylation.
Association and dissociation rates for ligands were determined by fitting fractional values obtained for the progress of the reaction as a function of time using a single exponential equation progress of reaction=e^−kt
where k is the apparent rate constant. For the dissociation experiments, the reaction is assumed to be first order and dissociation rates, kd, are expressed as s^−1. For the association rates, k^a, the reaction is assumed to be second order and the rates are expressed as M^−1s^−1 by dividing the apparent rate constants by the concentration of the protein determined by experimental conditions (Table 4).

| kd (ERR-α [2]) | Compound | EC50 (ERR-α [1]) | kon (ERR-α [3]) |
| --- | --- | --- | --- |
|  | COC(=O)c1ccc(Oc2ccc(/C=C3\SC(=O)NC3=O)cc2OC)c(C(F)(F)F)c1 [Compound 2] | 11 nM |  |
| 2.19e-05 s⁻¹ | CN1CCN(C2=NC(=O)/C(=C/c3ccc(Oc4ccc(C#N)cc4C(F)(F)F)c(F)c3)S2)CC1 [Compound 4] |  |  |
| 1.53e-05 s⁻¹ | COc1cc(/C=C2\SC(N3CCN(C)CC3)=NC2=O)ccc1Oc1ccc(C#N)cc1C(F)(F)F [Compound 3] |  |  |
| 2.05e-05 s⁻¹ | COc1cc(/C=C2\SC(N)=NC2=O)ccc1Oc1ccc(C#N)cc1C(F)(F)F [Compound 5] |  |  |

| Compound | kd (ERR-α [2]) | EC50 (ERR-α [1]) | kon (ERR-α [3]) |
| --- | --- | --- | --- |
| COc1cc(/C=C2\SC(=O)NC2=O)ccc1Oc1ccc(C#N)cc1C(F)(F)F [Compound 1] | 1.1e-05 s⁻¹ |  | 6600 M⁻¹ s⁻¹ |
